The results in this text go back to US20250351818A1, “PESTICIDAL BAIT COMPOSITION AND PROCESSES RELATED THERETO” (priority 2022, published 2025).

For assay [1], the system named is phytoplasma and spiroplasma (corn stunt). Briefly: Corn field naturally infected, foliar kasugamycin, severity of the stunts. Format: in vivo. To be noted: 100 g ai/ha; for severity of the disease (percent of leaf area infected, visual): 1 application/week for 4 weeks. An excerpt:
Another major problem is corn stunt disease. S. kunkelii, a spiroplasma often referred to as corn stunt spiroplasma and a Maize bushy stunt phytoplasma (MBSP) can both survive in the maize leafhopper (Dalbulus maidis), and it causes corn stunt disease. Foliar use of insecticides can be used to partially control Dalbulus maidis, however, the use of this method to control corn stunt disease is not very successful. kasugamycin (Ksg) is an aminoglycoside antibiotic. However, we have discovered that mixing kasugamycin with pesticides can control the Dalbulus maidis and S. kunkelii at the same time thereby helping to avoid corn stunt disease brought by the vector Dalbulus maidis. The amount of kasugamycin can vary from 20 g ai/ha to 100 g ai/ha in mixture with the insecticides when used in foliar applications, for example, spinetoram and sulfoxaflor at 18 g ai/ha+32 g ai/ha respectively, or spinetoram and methomyl at 18 g ai/ha and 220 g ai/ha, respectively. However, with the bait composition the amount of kasugamycin to use in the pesticidal bait compositions, based on the total weight of a pesticidal bait composition, is from about 2.0 weight percent to about 0.01 weight percent, preferably from about 1.0 weight percent to about 0.1 weight percent, and even more preferably from about 0.5 weight percent to about 0.25 weight percent. Of course, the kasugamycin weight percent will vary depending on various factors such as, local environmental conditions and pest control effects desired, among other factors.
A corn field with plants naturally infected by both phytoplasma and spiroplasma was sprayed with kasugamycin at 100 g ai/ha. The plants with 4 true-leaves were sprayed with 1 application/week for 4 weeks. Fifteen days after the first application and 15 days after the fourth spraying the severity of the stunts were evaluated visually, considering the percent of leaf area infected (showing symptoms). […]

Assay [2] concerns stunts (corn stunt disease). Briefly: Field corn, four foliar applications of pesticides solo and in mixture with kasugamycin, incidence of stunts and yield. The format is in vivo. The note with it: four foliar applications 7 days apart from V2; 91 days after sowing. An excerpt:
Another major problem is corn stunt disease. S. kunkelii, a spiroplasma often referred to as corn stunt spiroplasma and a Maize bushy stunt phytoplasma (MBSP) can both survive in the maize leafhopper (Dalbulus maidis), and it causes corn stunt disease. Foliar use of insecticides can be used to partially control Dalbulus maidis, however, the use of this method to control corn stunt disease is not very successful. kasugamycin (Ksg) is an aminoglycoside antibiotic. However, we have discovered that mixing kasugamycin with pesticides can control the Dalbulus maidis and S. kunkelii at the same time thereby helping to avoid corn stunt disease brought by the vector Dalbulus maidis. The amount of kasugamycin can vary from 20 g ai/ha to 100 g ai/ha in mixture with the insecticides when used in foliar applications, for example, spinetoram and sulfoxaflor at 18 g ai/ha+32 g ai/ha respectively, or spinetoram and methomyl at 18 g ai/ha and 220 g ai/ha, respectively. […]
Four foliar applications of pesticides solo and in mixture with kasugamycin were performed in corn plants in field starting at V2 (2 true-leaves) stage of the crop with 7 days apart. […] The incidence of plants with symptoms of stunts at 53 and 91 days after sowing and the yield were assessed. […]

For `C[C@H]1O[C@H](O[C@H]2[C@H](O)[C@@H](O)[C@@H](O)[C@H](O)[C@@H]2O)[C@@H](N)C[C@@H]1NC(=N)C(=O)O` [kasugamycin], the “severity of the disease (percent of leaf area infected, visual)” value in assay [1] (15 days after the fourth application) is 43%; in assay [1] (fifteen days after the first application), 27%. For the same molecule, the “reduction of the progression of the disease vs untreated” value in assay [1] (15 days after the fourth application (43% vs 54% untreated)) was 20%. The “reduction of the progression of the disease in comparison with the untreated” value in assay [2] is 11%.
